Test results published in patent publication US5409933A, “Quinoline derivatives and processes for preparing the same” (priority 1993, dated 1995).
Where a name gives a salt, the structure may show the parent alone. Read-outs that look alike come from different tables or passages of the source.

Tests used:
Assay in all cases: In Vitro Anti-Bacterial Activity Test (MIC, agar dilution)
Format in all cases: cell-based
Escherichia coli 1507E = conditions: Muller-Hinton agar, 37° C.
Description: (§1) The above in vitro antibacterial activity test was carried out in accordance with the agar culture medium dilution method (Hoechst 345) by using Muller-Hinton agar medium to determine the minimum inhibitory concentration (MIC).
(§2) The strains having 10^7 C.F.U./ml were inoculated on the culture medium, and the growth of the strains was observed after incubating them at 37° C. for 18 hours, in which ciprofloxacin was used as a control antibacterial agent. In this test, twenty typical strains were used.

Escherichia coli TEM = conditions: Escherichia coli, 18 h, Muller-Hinton agar, 37° C.
Description: as §1, §2

Salmonella typhimurium = conditions: Salmonella enterica; Salmonella typhimurium; Muller-Hinton agar, 37° C., 18 hours; read-out: MIC
Description: as §1, §2

Klebsiella oxytoca 1082E = conditions: Klebsiella oxytoca 1082E; Muller-Hinton agar, 37° C., 18 hours; read-out: MIC
Description: as §1, §2

[1] = test system: Pseudomonas aeruginosa 9027; conditions: Muller-Hinton agar, 37° C., 18 hours, read-out: MIC
Description: as §1, §2

[2] = test system: Staphylococcus aureus 503; conditions: Staphylococcus aureus 503; Muller-Hinton agar, 37° C., 18 hours; read-out: MIC
Description: as §1, §2

[3] = test system: Klebsiella aerogenes 1522E; conditions: Klebsiella aerogenes, 1522E, 18 h, Klebsiella aerogenes 1522E; Muller-Hinton agar, 37° C., 18 hours; read-out: MIC
Description: as §1, §2

[4] = test system: Staphylococcus aureus 285; conditions: Staphylococcus aureus, 285, 18 h, Staphylococcus aureus 285; Muller-Hinton agar, 37° C., 18 hours; read-out: MIC
Description: as §1, §2

Enterobacter cloacae P99 = conditions: Enterobacter cloacae, P99, 18 h
Description: as §1, §2

[5] = test system: Enterobacter cloacae 1321E
Description: as §1, §2

[6] = test system: Pseudomonas aeruginosa 1771M; conditions: Pseudomonas aeruginosa, 1771M, 18 h, Muller-Hinton agar, 37° C.
Description: as §1, §2

[7] = test system: Pseudomonas aeruginosa 1771; conditions: Pseudomonas aeruginosa 1771; Muller-Hinton agar, 37° C., 18 hours; read-out: MIC
Description: as §1, §2

[8] = test system: Streptococcus pyogenes 308A; conditions: Muller-Hinton agar, 37° C., 18 hours, read-out: MIC
Description: as §1, §2

Escherichia coli DC0 = conditions: Muller-Hinton agar, 37° C., 18 hours, read-out: MIC
Description: as §1, §2

Escherichia coli 078 = test system: Escherichia coli 078
Description: as §1, §2

Escherichia coli DC2 = conditions: Escherichia coli, DC2, 18 h
Description: as §1, §2

[9] = test system: Pseudomonas aeruginosa 1592E; conditions: Muller-Hinton agar, 37° C., 18 hours, read-out: MIC
Description: as §1, §2

[10] = test system: Streptococcus faecium MD8b; conditions: Enterococcus faecium, Muller-Hinton agar, 37° C., 18 hours, read-out: MIC
Description: as §1, §2

[11] = test system: Streptococcus pyogenes 77A
Description: as §1, §2

[12] = test system: Staphylococcus aureus SG511; conditions: Staphylococcus aureus SG511; Muller-Hinton agar, 37° C., 18 hours; read-out: MIC
Description: as §1, §2

[13] = Enterobacter cloacae 1321E, Muller-Hinton agar, 37° C., 18 hours, read-out: MIC
[14] = Escherichia coli 078, Muller-Hinton agar, 37° C., 18 hours, read-out: MIC
[15] = Streptococcus pyogenes 77A, Muller-Hinton agar, 37° C., 18 hours, read-out: MIC

Compound: CCOC(=O)C(C(=O)OCC)C(=O)c1cn(C2CC2)c2c(Cl)c(N3CC=C(CNC)C3)c(F)cc2c1=O [Example 28, 1-cyclopropyl-6-fluoro-8-chloro-7-(3-methylaminomethyl-2,5-dihydropyrrol-1-yl)-3-(2,2-diethoxycarbonylacetyl)-1,4-dihydro-4-oxoquinoline hydrochloride]
- MIC (Escherichia coli 1507E; Escherichia coli, 1507E, 18 h): 0.013 µg/mL
- MIC (Escherichia coli TEM): 13 ng/mL
- MIC (Salmonella typhimurium): 0.013 µg/mL
- MIC (Klebsiella oxytoca 1082E): 7 ng/mL
- MIC [1]: 0.781 µg/mL
- MIC [2]: < 0.002 µg/mL
- MIC [3]: 0.013 µg/mL
- MIC [4]: 0.007 µg/mL
- MIC (Enterobacter cloacae P99): < 2 ng/mL
- MIC [5, 13]: < 2 ng/mL
- MIC [6]: 0.195 µg/mL
- MIC [7]: 0.781 µg/mL
- MIC [8]: 0.098 µg/mL
- MIC (Escherichia coli DC0): 0.195 µg/mL
- MIC (Escherichia coli 078; [14]): < 2 ng/mL
- MIC (Escherichia coli DC2): 0.049 µg/mL
- MIC [9]: 0.391 µg/mL
- MIC [10]: 0.049 µg/mL
- MIC [11, 15]: 0.049 µg/mL
- MIC [12]: 0.004 µg/mL

Compound: CCOC(=O)C(C(=O)OCC)C(=O)c1cn(C2CC2)c2c(Cl)c(N3CCC(N)C3)c(F)cc2c1=O (stereo not shown) [Example 22, 1-cyclopropyl-6-fluoro-8-chloro-7-(3-aminopyrrolidin-1-yl)-3-(2,2-diethoxycarbonylacetyl)-1,4-dihydro-4-oxoquinoline hydrochloride]
- MIC (Escherichia coli 1507E; 18 hours, read-out: MIC): < 0.002 µg/mL
- MIC (Escherichia coli TEM): < 2 ng/mL
- MIC (Salmonella typhimurium): 0.004 µg/mL
- MIC (Klebsiella oxytoca 1082E): < 2 ng/mL
- MIC [1]: 0.781 µg/mL
- MIC [2]: 0.049 µg/mL
- MIC [3]: 0.025 µg/mL
- MIC [4]: 0.098 µg/mL
- MIC (Enterobacter cloacae P99): 4 ng/mL
- MIC [5, 13]: < 2 ng/mL
- MIC [6]: 0.195 µg/mL
- MIC [7]: 0.781 µg/mL
- MIC [8]: 0.391 µg/mL
- MIC (Escherichia coli DC0): 0.098 µg/mL
- MIC (Escherichia coli 078; [14]): 4 ng/mL
- MIC (Escherichia coli DC2): 0.025 µg/mL
- MIC [9]: 0.781 µg/mL
- MIC [10]: 0.391 µg/mL
- MIC ([11]; Streptococcus pyogenes, 77A, 18 h): 0.781 µg/mL
- MIC [12]: 0.049 µg/mL

Compound: CN[C@H]1CCN(c2c(F)cc3c(=O)c(C(=O)C[N+](=O)[O-])cn(C4CC4)c3c2Cl)C1 [Example 62, 1-cyclopropyl-6-fluoro-8-chloro-7-(3-3S-methylaminopyrrolidin-1-yl)-3-(2-nitroacetyl)-1,4-dihydro-4-oxoquinoline hydrochloride]
- MIC (Escherichia coli 1507E; Escherichia coli, 1507E, 18 h): 0.007 µg/mL
- MIC (Escherichia coli TEM): 7 ng/mL
- MIC (Salmonella typhimurium): 0.025 µg/mL
- MIC (Klebsiella oxytoca 1082E): < 2 ng/mL
- MIC [1]: 0.195 µg/mL
- MIC [2]: 0.013 µg/mL
- MIC [3]: 0.007 µg/mL
- MIC [4]: 0.025 µg/mL
- MIC (Enterobacter cloacae P99): 7 ng/mL
- MIC ([5]; Enterobacter cloacae, 1321E, 18 h): 7 ng/mL
- MIC [6]: 0.098 µg/mL
- MIC [7]: 0.098 µg/mL
- MIC [8]: 0.098 µg/mL
- MIC (Escherichia coli DC0): 0.025 µg/mL
- MIC (Escherichia coli 078; [14]): < 2 ng/mL
- MIC (Escherichia coli DC2): 0.013 µg/mL
- MIC [9]: 0.098 µg/mL
- MIC [10]: 0.049 µg/mL
- MIC [11, 15]: 0.049 µg/mL
- MIC [12]: 0.013 µg/mL

Compound: CCOC(=O)CC(=O)c1cn(C2CC2)c2c(Cl)c(N3CCC(N)C3)c(F)cc2c1=O (stereo not shown) [Example 25, 1-cyclopropyl-6-fluoro-8-chloro-7-(3-aminopyrrolidin-1-yl)-3-(2-ethoxycarbonylacetyl)-1,4-dihydro-4-oxoquinoline hydrochloride]
- MIC (Escherichia coli 1507E; Escherichia coli, 1507E, 18 h): 0.025 µg/mL
- MIC (Escherichia coli TEM): < 2 ng/mL
- MIC (Salmonella typhimurium): 0.004 µg/mL
- MIC (Klebsiella oxytoca 1082E): < 2 ng/mL
- MIC [1]: 0.391 µg/mL
- MIC [2]: 0.049 µg/mL
- MIC [3]: 0.013 µg/mL
- MIC [4]: 0.049 µg/mL
- MIC (Enterobacter cloacae P99): 4 ng/mL
- MIC [5, 13]: < 2 ng/mL
- MIC [6]: 0.098 µg/mL
- MIC [7]: 0.195 µg/mL
- MIC [8]: 0.781 µg/mL
- MIC (Escherichia coli DC0): 0.098 µg/mL
- MIC (Escherichia coli 078; [14]): < 2 ng/mL
- MIC (Escherichia coli DC2): 0.025 µg/mL
- MIC [9]: 0.195 µg/mL
- MIC [10]: 0.391 µg/mL
- MIC [11, 15]: 0.391 µg/mL
- MIC [12]: 0.098 µg/mL

Compound: CNCC1=CCN(c2c(F)cc3c(=O)c(C(=O)CS(C)(=O)=O)cn(C4CC4)c3c2Cl)C1 [Example 46, 1-cyclopropyl-6-fluoro-8-chloro-7-(3-methylaminomethyl-2,5-dihydropyrrol-1-yl)-3-(2-methanesulfonylacetyl)-1,4-dihydro-4-oxoquinoline hydrochloride]
- MIC (Escherichia coli 1507E; Escherichia coli, 1507E, 18 h): 0.098 µg/mL
- MIC (Escherichia coli TEM): 49 ng/mL
- MIC (Salmonella typhimurium): 0.195 µg/mL
- MIC (Klebsiella oxytoca 1082E): 13 ng/mL
- MIC [1]: 1.56 µg/mL
- MIC [2]: 0.049 µg/mL
- MIC [3]: 0.013 µg/mL
- MIC [4]: 0.049 µg/mL
- MIC (Enterobacter cloacae P99): 98 ng/mL
- MIC [5, 13]: 49 ng/mL
- MIC [6]: 0.195 µg/mL
- MIC [7]: 1.56 µg/mL
- MIC [8]: 1.56 µg/mL
- MIC (Escherichia coli DC0): 0.391 µg/mL
- MIC (Escherichia coli 078; Escherichia coli, 078, 18 h): 25 ng/mL
- MIC (Escherichia coli DC2): 0.098 µg/mL
- MIC [9]: 0.781 µg/mL
- MIC [10]: 0.195 µg/mL
- MIC [11, 15]: 0.391 µg/mL
- MIC [12]: 0.098 µg/mL
